The results in this text go back to patent US20240010654A1, “CRYSTALLINE FORMS OF A TYK2 INHIBITOR” (Ventyx Biosciences, Inc., priority 2022, published 2024).

In the test the test system is JAK1/TYK2. The experiment in a line: Co-stimulation assay in lysed whole blood: IFNa (JAK1/TYK2) stimulated STAT1 phosphorylation. It counts as cell-based. The settings on record: lysed human whole blood, IFNa 100 ng/mL, pSTAT1 by flow cytometry; read-out: IFN-a/Jak1Tyk2 IC50. As to the method:
Example 16: Co-Stimulation Assay in Lysed Whole Blood; JAK2: GM-CSF Stimulated STAT5 Phosphorylation and JAK1/TYK2 Stimulated STAT1 Phosphorylation Assay
Dilute RBC lysis buffer to 1× in distilled water. Add 2 mL blood to 38 mL of 1×RBC-lysis buffer. Incubate for 15 mins at RT, in dark. Spin at 300 g, 5 mins, to collect the pellet. Re-lyse if necessary. Re-suspend pellet in 5 mL of cRPMI.
Aliquot 80 μL of lysed human blood in to wells of 96 deep-well plate. Add 10 μL of (10× conc.) of different concentrations of Compound 1 to all wells except controls (unstained and unstimulated) and mix it with the help of 100 uL multichannel. Add 10 uL of RPMI media in controls. For dilution of Compound 1 and dilution range please refer Appendix. Incubate on water bath or CO2 incubator for 1 hour at 37° C. Add 10 μL of (10× conc.) of cytokine mix (GM-CSF and IFNa) (final conc. 10 ng/mL of GM-CSF and 100 ng/mL of IFNa) to each well except unstimulated and unstained controls and incubate further for 20 minutes on water bath at 37° C.
Add 900 μL of prewarmed 1× Fix/Lyse solution (Appendix) and mix it properly using 1000 μl multichannel, incubate further on water bath at 37° C. for 10 minutes (which includes time of addition). Centrifuge at 800×g for 5 minutes at 40° C.; remove 900 uL of supernatant and add 900 μL of 1×PBS. Centrifuge at 800×g for 5 minutes at 40° C., remove 900 μL of supernatant. […]
In general terms: In flow cytometry, cells or beads pass a laser one at a time.

On to `CNc1cc(Nc2cc(F)cc3c2OCCO3)nc2c(NC(=O)N[C@@H]3C[C@@H]3F)cnn12` [Compound 1, 1-(5-((7-fluoro-2,3-dihydrobenzo[b][1,4]dioxin-5-yl)amino)-7-(methylamino)pyrazolo[1,5-a]pyrimidin-3-yl)-3-((1R,2S)-2-fluorocyclopropyl)urea], for which the IC50 is below 1 µM.
